Results published in patent US4130559A, “Method for the preparation of 6-aminopenicillinic acid derivatives” (priority 1977, dated 1978).
In brackets after ≈: the same amount, converted by molar mass.

Tested on: not listed separately
Assay: Acid resistance (half-life period)
Type: physicochemical
Settings: acid ph 1.3; Temperature 37° C, pH 1.3; Table 1, cyclopentyl series; read-out: τ1/2 half-life period (acid resistance)
Method: (§1) All compounds of this group were prepared in the form of sodium salts. Bactericidal activity, degree of hydrolysis with staphylococc penicillinase and acid resistance of the penicillins were determined.

Row | SMILES | half-life [h]
1 | CCCCOc1cccc(C2(C(=O)NC3C(=O)N4C3SC(C)(C)C4C(=O)O)CCCC2)c1 (stereo not drawn) [Compound XI (Table 1)] | 4.63
2 | COc1ccc(C2(C(=O)NC3C(=O)N4C3SC(C)(C)C4C(=O)O)CCCC2)cc1 (stereo not drawn) [Compound XII (Table 1)] | 2.72
3 | CCOc1ccc(C2(C(=O)NC3C(=O)N4C3SC(C)(C)C4C(=O)O)CCCC2)cc1 (stereo not drawn) [Compound XIII (Table 1), 1-(n-Ethoxyphenyl)Cyclopentyl-1-Penicillin] | 1.65
4 | CCCOc1ccc(C2(C(=O)NC3C(=O)N4C3SC(C)(C)C4C(=O)O)CCCC2)cc1 (stereo not drawn) [Compound XIV (Table 1)] | 1.48

Target: staphylococc penicillinase (Staphylococcus aureus, UniProt P00807)
Assay: Hydrolysis/inactivation by staphylococc penicillinase
Type: biochemical
Settings: Table 5
Method: as §1
The substitution of propoxy radical for iso-radical in this position is not accompanied by areduction of penicillin stability against penicillinase which is not observed in the orto- and para-positions. During the subsequent hours of inactivation the rate of hydrolysis of penicillins slightly increases. However, even when observed in dynamics, their stability against penicillianase still persists during 4-hour-inactivation.

Sequence of staphylococc penicillinase (P00807 25-281): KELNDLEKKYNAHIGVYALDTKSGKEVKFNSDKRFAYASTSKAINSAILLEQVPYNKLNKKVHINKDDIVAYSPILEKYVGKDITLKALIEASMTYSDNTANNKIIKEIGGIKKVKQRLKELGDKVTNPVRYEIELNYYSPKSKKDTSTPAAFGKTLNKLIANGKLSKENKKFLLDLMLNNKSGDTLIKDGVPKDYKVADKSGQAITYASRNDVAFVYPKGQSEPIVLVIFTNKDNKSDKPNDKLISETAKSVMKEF

Row | SMILES | Quantity of inactivated units of compounds under the action of 1 unit of staphylococc penicillinase [units]
5 | CCCCOc1cccc(C2(C(=O)NC3C(=O)N4C3SC(C)(C)C4C(=O)O)CCCC2)c1 (stereo not drawn) [Compound XI (Table 1)] | 11.2
6 | COc1ccc(C2(C(=O)NC3C(=O)N4C3SC(C)(C)C4C(=O)O)CCCC2)cc1 (stereo not drawn) [Compound XII (Table 1)] | 40.3
7 | CCOc1ccc(C2(C(=O)NC3C(=O)N4C3SC(C)(C)C4C(=O)O)CCCC2)cc1 (stereo not drawn) [Compound XIII (Table 1), 1-(n-Ethoxyphenyl)Cyclopentyl-1-Penicillin] | 24.9
8 | CCCOc1ccc(C2(C(=O)NC3C(=O)N4C3SC(C)(C)C4C(=O)O)CCCC2)cc1 (stereo not drawn) [Compound XIV (Table 1)] | 10.4

Tested on: B.Subtitis ATCC6633
Assay: Minimal bacteriostatic concentration
Type: cell-based
Settings: sodium salts
Method: as §1

Row | SMILES | MIC [µg/mL]
9 | CCCCOc1cccc(C2(C(=O)NC3C(=O)N4C3SC(C)(C)C4C(=O)O)CCCC2)c1 (stereo not drawn) [Compound XI (Table 1)] | 1.56
10 | COc1ccc(C2(C(=O)NC3C(=O)N4C3SC(C)(C)C4C(=O)O)CCCC2)cc1 (stereo not drawn) [Compound XII (Table 1)] | 0.24
11 | CCOc1ccc(C2(C(=O)NC3C(=O)N4C3SC(C)(C)C4C(=O)O)CCCC2)cc1 (stereo not drawn) [Compound XIII (Table 1), 1-(n-Ethoxyphenyl)Cyclopentyl-1-Penicillin] | 0.24
12 | CCCOc1ccc(C2(C(=O)NC3C(=O)N4C3SC(C)(C)C4C(=O)O)CCCC2)cc1 (stereo not drawn) [Compound XIV (Table 1)] | 0.24

Tested on: E.coli O-55
Assay: Minimal bacteriostatic concentration
Type: cell-based
Settings: Escherichia coli, O55, read-out: Minimal Bacteriostatic Concentration
Method: as §1

Row | SMILES | MIC [µg/mL]
13 | CCCCOc1cccc(C2(C(=O)NC3C(=O)N4C3SC(C)(C)C4C(=O)O)CCCC2)c1 (stereo not drawn) [Compound XI (Table 1)] | 125 (≈ 271 µM)
14 | COc1ccc(C2(C(=O)NC3C(=O)N4C3SC(C)(C)C4C(=O)O)CCCC2)cc1 (stereo not drawn) [Compound XII (Table 1)] | 125 (≈ 299 µM)
15 | CCOc1ccc(C2(C(=O)NC3C(=O)N4C3SC(C)(C)C4C(=O)O)CCCC2)cc1 (stereo not drawn) [Compound XIII (Table 1), 1-(n-Ethoxyphenyl)Cyclopentyl-1-Penicillin] | 62.5 (≈ 144 µM)
16 | CCCOc1ccc(C2(C(=O)NC3C(=O)N4C3SC(C)(C)C4C(=O)O)CCCC2)cc1 (stereo not drawn) [Compound XIV (Table 1)] | 125 (≈ 280 µM)

Tested on: E.typhi
Assay: Minimal bacteriostatic concentration
Type: cell-based
Settings: read-out: Minimal Bacteriostatic Concentration
Method: as §1

Row | SMILES | MIC [µg/mL]
17 | COc1ccc(C2(C(=O)NC3C(=O)N4C3SC(C)(C)C4C(=O)O)CCCC2)cc1 (stereo not drawn) [Compound XII (Table 1)] | 7.8 (≈ 18.6 µM)
18 | CCOc1ccc(C2(C(=O)NC3C(=O)N4C3SC(C)(C)C4C(=O)O)CCCC2)cc1 (stereo not drawn) [Compound XIII (Table 1), 1-(n-Ethoxyphenyl)Cyclopentyl-1-Penicillin] | 7.8 (≈ 18 µM)
19 | CCCOc1ccc(C2(C(=O)NC3C(=O)N4C3SC(C)(C)C4C(=O)O)CCCC2)cc1 (stereo not drawn) [Compound XIV (Table 1)] | 7.8 (≈ 17.5 µM)

Tested on: Myco smegmatis
Assay: Minimal bacteriostatic concentration
Type: cell-based
Settings: sodium salts
Method: as §1

Row | SMILES | MIC [µg/mL]
20 | CCCCOc1cccc(C2(C(=O)NC3C(=O)N4C3SC(C)(C)C4C(=O)O)CCCC2)c1 (stereo not drawn) [Compound XI (Table 1)] | > 500
21 | COc1ccc(C2(C(=O)NC3C(=O)N4C3SC(C)(C)C4C(=O)O)CCCC2)cc1 (stereo not drawn) [Compound XII (Table 1)] | > 500
22 | CCOc1ccc(C2(C(=O)NC3C(=O)N4C3SC(C)(C)C4C(=O)O)CCCC2)cc1 (stereo not drawn) [Compound XIII (Table 1), 1-(n-Ethoxyphenyl)Cyclopentyl-1-Penicillin] | > 500
23 | CCCOc1ccc(C2(C(=O)NC3C(=O)N4C3SC(C)(C)C4C(=O)O)CCCC2)cc1 (stereo not drawn) [Compound XIV (Table 1)] | > 500

Tested on: Prot.vulgaris
Assay: Minimal bacteriostatic concentration
Type: cell-based
Settings: Proteus vulgaris, sodium salts
Method: as §1

Row | SMILES | MIC [µg/mL]
24 | CCCCOc1cccc(C2(C(=O)NC3C(=O)N4C3SC(C)(C)C4C(=O)O)CCCC2)c1 (stereo not drawn) [Compound XI (Table 1)] | 125
25 | COc1ccc(C2(C(=O)NC3C(=O)N4C3SC(C)(C)C4C(=O)O)CCCC2)cc1 (stereo not drawn) [Compound XII (Table 1)] | 62.5
26 | CCOc1ccc(C2(C(=O)NC3C(=O)N4C3SC(C)(C)C4C(=O)O)CCCC2)cc1 (stereo not drawn) [Compound XIII (Table 1), 1-(n-Ethoxyphenyl)Cyclopentyl-1-Penicillin] | 62.5
27 | CCCOc1ccc(C2(C(=O)NC3C(=O)N4C3SC(C)(C)C4C(=O)O)CCCC2)cc1 (stereo not drawn) [Compound XIV (Table 1)] | 62.5

Tested on: Ps.aeruginosa
Assay: Minimal bacteriostatic concentration
Type: cell-based
Settings: Pseudomonas aeruginosa, sodium salts
Method: as §1

Row | SMILES | MIC [µg/mL]
28 | COc1ccc(C2(C(=O)NC3C(=O)N4C3SC(C)(C)C4C(=O)O)CCCC2)cc1 (stereo not drawn) [Compound XII (Table 1)] | > 500
29 | CCOc1ccc(C2(C(=O)NC3C(=O)N4C3SC(C)(C)C4C(=O)O)CCCC2)cc1 (stereo not drawn) [Compound XIII (Table 1), 1-(n-Ethoxyphenyl)Cyclopentyl-1-Penicillin] | > 500
30 | CCCOc1ccc(C2(C(=O)NC3C(=O)N4C3SC(C)(C)C4C(=O)O)CCCC2)cc1 (stereo not drawn) [Compound XIV (Table 1)] | > 500

Tested on: Sh.dysenteriae Flexneri
Assay: Minimal bacteriostatic concentration
Type: cell-based
Settings: Shigella dysenteriae, read-out: Minimal Bacteriostatic Concentration
Method: as §1

Row | SMILES | MIC [µg/mL]
31 | CCCCOc1cccc(C2(C(=O)NC3C(=O)N4C3SC(C)(C)C4C(=O)O)CCCC2)c1 (stereo not drawn) [Compound XI (Table 1)] | 125 (≈ 271 µM)
32 | COc1ccc(C2(C(=O)NC3C(=O)N4C3SC(C)(C)C4C(=O)O)CCCC2)cc1 (stereo not drawn) [Compound XII (Table 1)] | 31.2 (≈ 74.5 µM)
33 | CCOc1ccc(C2(C(=O)NC3C(=O)N4C3SC(C)(C)C4C(=O)O)CCCC2)cc1 (stereo not drawn) [Compound XIII (Table 1), 1-(n-Ethoxyphenyl)Cyclopentyl-1-Penicillin] | 31.2 (≈ 72.1 µM)
34 | CCCOc1ccc(C2(C(=O)NC3C(=O)N4C3SC(C)(C)C4C(=O)O)CCCC2)cc1 (stereo not drawn) [Compound XIV (Table 1)] | 31.2 (≈ 69.9 µM)

Tested on: Staph. albus
Assay: Minimal bacteriostatic concentration
Type: cell-based
Settings: sodium salts
Method: as §1

Row | SMILES | MIC [µg/mL]
35 | CCCCOc1cccc(C2(C(=O)NC3C(=O)N4C3SC(C)(C)C4C(=O)O)CCCC2)c1 (stereo not drawn) [Compound XI (Table 1)] | 0.19
36 | COc1ccc(C2(C(=O)NC3C(=O)N4C3SC(C)(C)C4C(=O)O)CCCC2)cc1 (stereo not drawn) [Compound XII (Table 1)] | 0.19
37 | CCOc1ccc(C2(C(=O)NC3C(=O)N4C3SC(C)(C)C4C(=O)O)CCCC2)cc1 (stereo not drawn) [Compound XIII (Table 1), 1-(n-Ethoxyphenyl)Cyclopentyl-1-Penicillin] | 0.09
38 | CCCOc1ccc(C2(C(=O)NC3C(=O)N4C3SC(C)(C)C4C(=O)O)CCCC2)cc1 (stereo not drawn) [Compound XIV (Table 1)] | 0.09

Tested on: Staph. aureus 209p
Assay: Minimal bacteriostatic concentration
Type: cell-based
Settings: Staphylococcus aureus, sodium salts
Method: as §1

Row | SMILES | MIC [µg/mL]
39 | CCCCOc1cccc(C2(C(=O)NC3C(=O)N4C3SC(C)(C)C4C(=O)O)CCCC2)c1 (stereo not drawn) [Compound XI (Table 1)] | 0.39
40 | COc1ccc(C2(C(=O)NC3C(=O)N4C3SC(C)(C)C4C(=O)O)CCCC2)cc1 (stereo not drawn) [Compound XII (Table 1)] | 0.19
41 | CCOc1ccc(C2(C(=O)NC3C(=O)N4C3SC(C)(C)C4C(=O)O)CCCC2)cc1 (stereo not drawn) [Compound XIII (Table 1), 1-(n-Ethoxyphenyl)Cyclopentyl-1-Penicillin] | 0.19
42 | CCCOc1ccc(C2(C(=O)NC3C(=O)N4C3SC(C)(C)C4C(=O)O)CCCC2)cc1 (stereo not drawn) [Compound XIV (Table 1)] | 0.39

Tested on: Strept. pyrogenes
Assay: Minimal bacteriostatic concentration
Type: cell-based
Settings: sodium salts
Method: as §1

Row | SMILES | MIC [µg/mL]
43 | CCCCOc1cccc(C2(C(=O)NC3C(=O)N4C3SC(C)(C)C4C(=O)O)CCCC2)c1 (stereo not drawn) [Compound XI (Table 1)] | 0.39
44 | COc1ccc(C2(C(=O)NC3C(=O)N4C3SC(C)(C)C4C(=O)O)CCCC2)cc1 (stereo not drawn) [Compound XII (Table 1)] | 0.048
45 | CCOc1ccc(C2(C(=O)NC3C(=O)N4C3SC(C)(C)C4C(=O)O)CCCC2)cc1 (stereo not drawn) [Compound XIII (Table 1), 1-(n-Ethoxyphenyl)Cyclopentyl-1-Penicillin] | 0.048
46 | CCCOc1ccc(C2(C(=O)NC3C(=O)N4C3SC(C)(C)C4C(=O)O)CCCC2)cc1 (stereo not drawn) [Compound XIV (Table 1)] | 0.048

Tested on: Vibrion Metschnicoff
Assay: Minimal bacteriostatic concentration
Type: cell-based
Settings: Vibrion Metschnicoff; sodium salts; read-out: Minimal Bacteriostatic Concentration
Method: as §1

Row | SMILES | MIC [µg/mL]
47 | CCCCOc1cccc(C2(C(=O)NC3C(=O)N4C3SC(C)(C)C4C(=O)O)CCCC2)c1 (stereo not drawn) [Compound XI (Table 1)] | 15.6
48 | COc1ccc(C2(C(=O)NC3C(=O)N4C3SC(C)(C)C4C(=O)O)CCCC2)cc1 (stereo not drawn) [Compound XII (Table 1)] | 0.48
49 | CCOc1ccc(C2(C(=O)NC3C(=O)N4C3SC(C)(C)C4C(=O)O)CCCC2)cc1 (stereo not drawn) [Compound XIII (Table 1), 1-(n-Ethoxyphenyl)Cyclopentyl-1-Penicillin] | 0.19
50 | CCCOc1ccc(C2(C(=O)NC3C(=O)N4C3SC(C)(C)C4C(=O)O)CCCC2)cc1 (stereo not drawn) [Compound XIV (Table 1)] | 0.9

Tested on: not listed separately
Assay: in vivo
Settings: mouse, iv

Row | SMILES | MTD [mg/kg]
51 | CCCCOc1cccc(C2(C(=O)NC3C(=O)N4C3SC(C)(C)C4C(=O)O)CCCC2)c1 (stereo not drawn) [Compound XI (Table 1)] | 2000
52 | COc1ccc(C2(C(=O)NC3C(=O)N4C3SC(C)(C)C4C(=O)O)CCCC2)cc1 (stereo not drawn) [Compound XII (Table 1)] | 2000
53 | CCOc1ccc(C2(C(=O)NC3C(=O)N4C3SC(C)(C)C4C(=O)O)CCCC2)cc1 (stereo not drawn) [Compound XIII (Table 1), 1-(n-Ethoxyphenyl)Cyclopentyl-1-Penicillin] | 1500
54 | CCCOc1ccc(C2(C(=O)NC3C(=O)N4C3SC(C)(C)C4C(=O)O)CCCC2)cc1 (stereo not drawn) [Compound XIV (Table 1)] | 1500
